We go through 8 molecules from patent publication US10266527B2, “T-box riboswitch-binding anti-bacterial compounds” (THE RESEARCH FOUNDATION FOR THE STATE UNIVERSITY OF NEW YORK, priority 2013, dated 2019).

Holding throughout (type): cell-based
For one test, the system named is S. aureus. Kind of test: Disc diffusion assay (DDA) of PKZ6 and PKZ18 analogs with S. aureus. The following applies: Table 4, 150 μg/ml, ✓ = zone of inhibition observed. From the text:
(§1) The identity and purity of both PKZ 6 and 18 was confirmed by mass spectroscopy. Forty commercially available compounds chosen on the basis of initial in silico selections and similarity to our two hits were screened by disc diffusion assay (DDA) to determine their relative antibacterial activity with S. aureus. […] These 14 compounds were further evaluated by minimum inhibitory concentration assays (MIC)^41,42, and minimum bactericidal assays (MBC)^41 to confirm antibacterial activity, determine the concentration at which S. aureus growth is inhibited in liquid culture (MIC) and if they are acting as bacteriostatic or bactericidal agents (MBC). […] Representative embodiments are shown below.
All compounds were tested at a concentration of 150 μg/ml.
Background: Agar diffusion results depend on both activity and mobility in agar.

The subject of test [1] is E. coli ATCC 25922. Kind of test: Broth microdilution MIC (Gram negative specificity control). Particulars: Table 5 analogs, triplicate experiments, N/O = not observed at concentrations tested (512-0.25 μg/mL).
Test [2] relates to S. aureus ATCC 29213. Description: Broth microdilution MIC. Particulars: Table 5 analogs, triplicate experiments, N/O = not observed at concentrations tested (512-0.25 μg/mL); for MIC: Staphylococcus aureus, ATCC29213, read-out: S. aureus MIC.
From the text: as §1
Broth microdilution assays^77, 78 were performed with B. subtilis, and S. aureus to determine the lowest compound concentration inhibiting visible growth, i.e., minimum inhibitory concentration (MIC) of the 4 original compounds. […] The insolubility of the fourth compound may account for its lack of antibacterial activity. […] The MICs of each compound are moderate.
Strains were grown on trypticase soy agar (TSA) with 5% sheep blood at 37° C. for 24 hours. Five isolated colonies were used to inoculate 5 mL cation-adjusted Mueller-Hinton broth (CAMHB) contained in a 50 mL centrifuge tube. The resulting culture was incubated shaking at 200 rpm for 3 hours at 37° C. and then diluted in CAMHB until its turbidity matched that of a 0.5 McFarland standard (OD625 0.08-0.10). After the culture had been standardized against a 0.5 McFarland standard, it was diluted 1:10 in CAMHB and then 5 μL of this dilution was added to the appropriate wells of a 96-well, flat-bottomed tissue culture plate in which each row contained a twofold dilution series of a particular compound ranging in concentration from 0.25 μg/mL to 512 μg/mL. Each plate also included a sterility control well containing CAMHB to which standardized inoculum was not added and a growth control well containing CAMHB to which 5 μL standardized inoculum was added. […] With the exception of the sterility control well, all wells were inoculated within 15 minutes of inoculum preparation to ensure that the starting concentration of bacteria in each well was approximately 5×10^5 CFU/m L. A Tecan Sunrise microplate absorbance reader was used to measure the OD620 of each well before and after 20 h incubation at 37° C. MIC values were recorded as the lowest compound concentration at which no visible growth was observed after this incubation period.
A general note: Broth dilution looks for growth in wells or tubes with falling amounts of substance.

The test system of test [3] is E. coli ATCC 25922. Kind of test: MBC determination. Particulars: Table 5 analogs; triplicate experiments; N/O = not observed at concentrations tested (512-0.25 μg/mL). The procedure: (§2) Following 24 h incubation of these subcultures at 37° C., MBC values were recorded as the lowest compound concentration at which no viable colonies were observed.
The test system of test [4] is S. aureus ATCC 29213. Kind of test: MBC determination. Particulars: Table 5 analogs, triplicate experiments, N/O = not observed at concentrations tested (512-0.25 μg/mL).
From the text: as §1, §2

Structures are written as SMILES. Converted amounts (≈) assume the structure as drawn.

As to `O=C(NCCN1CCNCC1)C1=C(O)C2=CC=CC3CCN(C1=O)C23` (centres unmarked) [Compound 0613], the ZOI observed entry in the test on S. aureus is listed as “✓”.
On to `NCCNC(=O)c1c(O)c2cccc3c2n(c1=O)CCC3` [Compound 0615], for which the ZOI observed result in the test with S. aureus is given as “✓”.
As for `CCCCc1ccc(-c2nc(NC(=O)C3CC=CCC3C(=O)O)sc2C)cc1` (centres unmarked) [Compound 1805], the ZOI observed result in the test on S. aureus was “✓”.
As for `CCCc1ccc(-c2nc(NC(=O)C3CC(C)=C(C)CC3C(=O)O)sc2C)cc1` (centres unmarked) [Compound 1808], the ZOI observed entry in the test on S. aureus was “✓”.
By MIC is commonly meant the lowest concentration found to suppress growth. Consider `CC1=C(C)CC(C(=O)Nc2nc(-c3ccc(C)cc3)c(C)s2)C(C(=O)O)C1` (centres unmarked) [Compound 1810], for which the ZOI observed entry with S. aureus is “✓”. Moreover, the MIC in the test on E. coli ATCC 25922 [1] (Escherichia coli, ATCC25922, read-out: E. coli MIC) was 512 µg/mL (≈ 1330 µM); in the test with S. aureus ATCC 29213 [2], 256 µg/mL (≈ 666 µM). Further, in the test with E. coli ATCC 25922 [3], the “E. coli (MBC)” value is “N/O”. In addition, in the test on S. aureus ATCC 29213 [4], the “S. aureus (MBC)” value was “N/O”.
`O=C(O)C1C2CCC(C2)C1C(=O)Nc1nc(-c2cccs2)cs1` (centres unmarked) [Compound 1813]: in the test on S. aureus, the ZOI observed entry is reported as “✓”. Besides, the “E. coli MIC” value with E. coli ATCC 25922 [1] was “N/O (N/O)”. Moreover, in the test with S. aureus ATCC 29213 [2], the “S. aureus MIC” value is on record as “N/O (N/O)”. For the same molecule, the “E. coli (MBC)” value in the test with E. coli ATCC 25922 [3] is on record as “N/O (N/O)”. Further, the “S. aureus (MBC)” value in the test on S. aureus ATCC 29213 [4] is given as “N/O (N/O)”.
Broadly, the MBC is the lowest tested concentration that kills the bacteria rather than only halting them. In the case of `O=C(O)C1C2CCC(C2)C1C(=O)Nc1nc(-c2ccc(F)cc2F)cs1` (centres unmarked) [Compound 1819], the ZOI observed entry with S. aureus is given as “✓”. In addition, the MIC with S. aureus ATCC 29213 [2] amounted to 128 µg/mL (≈ 338 µM). Also, in the test on S. aureus ATCC 29213 [4] (Staphylococcus aureus, ATCC29213, read-out: S. aureus (MBC)), the MBC turned out to be 512 µg/mL (≈ 1350 µM).
Take `C[C@@H]1CC[C@@H](C)[C@H](C(=O)Nc2nc(-c3ccc(Cl)cc3Cl)cs2)C1C(=O)O` (some centres unmarked) [Compound 1820]: the ZOI observed result with S. aureus is recorded as “✓”. Also, the MIC in the test with S. aureus ATCC 29213 [2] worked out at 64 µg/mL (≈ 150 µM). Further, the “S. aureus (MBC)” value in the test on S. aureus ATCC 29213 [4] was “N/O”.
